In ChEMBL document CHEMBL1147148, “Cytotoxic withanolides from Tubocapsicum anomalum” (J Nat Prod, 2007):
In brackets after ≈: the same amount, converted by molar mass.

Experiments:
[1] = Cytotoxicity against human Hep3B cells by MTT method; assay type: cell-based, Hep 3B2
MRC5 = assay: Cytotoxicity against human MRC5 cells by MTT method; assay type: cell-based
MCF7 = assay: Cytotoxicity against human MCF7 cells by MTT method; assay type: cell-based
HepG2 = assay: Cytotoxicity against human HepG2 cells by MTT method; assay type: cell-based
MDA-MB-231 = assay: Cytotoxicity against human MDA-MB-231 cells by MTT method; assay type: cell-based
A549 = assay: Cytotoxicity against human A549 cells by MTT method; assay type: cell-based

Structure (SMILES): CC1=C(C)C(=O)O[C@@H]([C@@H](C)[C@@]2(O)CC[C@H]3[C@@H]4C[C@H]5O[C@]56[C@@H](O)C=CC(=O)[C@]6(C)[C@H]4CC[C@@]32C)C1
- IC50 [1]: 0.8 µg/mL (≈ 1.7 µM)
- IC50 (MRC5): 0.81 µg/mL (≈ 1.72 µM)
- IC50 (MCF7): 1.98 µg/mL (≈ 4.21 µM)
- IC50 (HepG2): 0.64 µg/mL (≈ 1.36 µM)
- IC50 (MDA-MB-231): 0.99 µg/mL (≈ 2.1 µM)
- IC50 (A549): 0.88 µg/mL (≈ 1.87 µM)

Structure (SMILES): CC1=C(C)C(=O)O[C@@H]([C@](C)(O)[C@@]2(O)CC[C@H]3[C@@H]4C[C@H]5O[C@]56[C@@H](O)C=CC(=O)[C@]6(C)[C@H]4CC[C@@]32C)C1
- IC50 [1]: 0.85 µg/mL (≈ 1.75 µM)
- IC50 (MRC5): 1.89 µg/mL (≈ 3.88 µM)
- IC50 (MCF7): 1.45 µg/mL (≈ 2.98 µM)
- IC50 (HepG2): 0.49 µg/mL (≈ 1.01 µM)
- IC50 (MDA-MB-231): 0.71 µg/mL (≈ 1.46 µM)
- IC50 (A549): 0.72 µg/mL (≈ 1.48 µM)

Structure (SMILES): CC1=C(C)C(=O)O[C@@H]([C@@H](C)[C@@]2(O)CC[C@H]3[C@@H]4C[C@H](O)[C@]5(O)[C@@H](O)C=CC(=O)[C@]5(C)[C@H]4CC[C@@]32C)C1
- IC50 [1]: 7.19 µg/mL (≈ 14.7 µM)
- IC50 (MCF7): > 20 µg/mL
- IC50 (HepG2): > 20 µg/mL
- IC50 (MDA-MB-231): 13.5 µg/mL (≈ 27.6 µM)
- IC50 (A549): 8.01 µg/mL (≈ 16.4 µM)

Structure (SMILES): CC1=C(C)C(=O)O[C@@H]([C@](C)(O)[C@@]23O[C@@H]2C[C@H]2[C@@H]4C[C@H]5O[C@]56[C@@H](O)C=CC(=O)[C@]6(C)[C@H]4CC[C@@]23C)C1 [20-HYDROXYTUBOCAPSANOLIDE A]
- IC50 [1]: 0.99 µg/mL (≈ 2.04 µM)
- IC50 (MRC5): 1.36 µg/mL (≈ 2.81 µM)
- IC50 (MCF7): 1.77 µg/mL (≈ 3.65 µM)
- IC50 (HepG2): 0.73 µg/mL (≈ 1.51 µM)
- IC50 (MDA-MB-231): 0.99 µg/mL (≈ 2.04 µM)
- IC50 (A549): 1.42 µg/mL (≈ 2.93 µM)

Structure (SMILES): CC1=C(C)[C@H](O)[C@H]([C@@H](C)[C@@]23O[C@@H]2C[C@H]2[C@@H]4C[C@H]5O[C@]56[C@@H](O)C=CC(=O)[C@]6(C)[C@H]4CC[C@@]23C)OC1=O [23-HYDROXYTUBOCAPSANOLIDE A]
- IC50 [1]: 0.49 µg/mL (≈ 1.01 µM)
- IC50 (MRC5): 0.9 µg/mL (≈ 1.86 µM)
- IC50 (MCF7): 2.05 µg/mL (≈ 4.23 µM)
- IC50 (HepG2): 0.44 µg/mL (≈ 0.908 µM)
- IC50 (MDA-MB-231): 1.19 µg/mL (≈ 2.46 µM)
- IC50 (A549): 0.79 µg/mL (≈ 1.63 µM)

Structure (SMILES): C[C@@]12CC([C@@]3(O)CC[C@H]4[C@@H]5C[C@H]6O[C@]67[C@@H](O)C=CC(=O)[C@]7(C)[C@H]5CC[C@@]43C)[C@@H](C1)OC(=O)[C@]2(C)O (stereo partly drawn) [ANOMANOLIDE A]
- IC50 [1]: 3.63 µg/mL (≈ 7.46 µM)
- IC50 (MRC5): 1.91 µg/mL (≈ 3.93 µM)
- IC50 (MCF7): 2.31 µg/mL (≈ 4.75 µM)
- IC50 (HepG2): 3.11 µg/mL (≈ 6.39 µM)
- IC50 (MDA-MB-231): 1.37 µg/mL (≈ 2.82 µM)
- IC50 (A549): 1.01 µg/mL (≈ 2.08 µM)

Structure (SMILES): C[C@@]12CC([C@@]3(O)CC[C@H]4[C@@H]5C[C@H](O)[C@]6(O)[C@@H](O)C=CC(=O)[C@]6(C)[C@H]5CC[C@@]43C)[C@@H](C1)OC(=O)[C@]2(C)O (stereo partly drawn) [ANOMANOLIDE B]
- IC50 [1]: 3.17 µg/mL (≈ 6.28 µM)
- IC50 (MRC5): 0.2 µg/mL (≈ 0.396 µM)
- IC50 (MCF7): 4.84 µg/mL (≈ 9.59 µM)
- IC50 (HepG2): 0.97 µg/mL (≈ 1.92 µM)
- IC50 (MDA-MB-231): 0.7 µg/mL (≈ 1.39 µM)
- IC50 (A549): 1.49 µg/mL (≈ 2.95 µM)

Structure (SMILES): C[C@@]12CC([C@@]3(O)[C@H](O)C[C@H]4[C@@H]5C[C@H]6O[C@]67[C@@H](O)C=CC(=O)[C@]7(C)[C@H]5CC[C@@]43C)[C@@H](C1)OC(=O)[C@]2(C)O (stereo partly drawn) [ANOMANOLIDE C]
- IC50 [1]: 1.85 µg/mL (≈ 3.68 µM)
- IC50 (MCF7): 8.01 µg/mL (≈ 15.9 µM)
- IC50 (HepG2): 4.41 µg/mL (≈ 8.77 µM)
- IC50 (MDA-MB-231): 1.58 µg/mL (≈ 3.14 µM)
- IC50 (A549): 2.8 µg/mL (≈ 5.57 µM)

Structure (SMILES): C[C@@]12CC([C@@]3(O)[C@H](O)C[C@H]4[C@@H]5C[C@H](Cl)[C@]6(O)[C@@H](O)C=CC(=O)[C@]6(C)[C@H]5CC[C@@]43C)[C@@H](C1)OC(=O)[C@]2(C)O (stereo partly drawn) [ANOMANOLIDE D]
- IC50 [1]: 19 µg/mL (≈ 35.3 µM)
- IC50 (MCF7): > 20 µg/mL
- IC50 (HepG2): > 20 µg/mL
- IC50 (MDA-MB-231): > 20 µg/mL
- IC50 (A549): > 20 µg/mL

Structure (SMILES): C[C@@]12CC([C@@]3(O)[C@H](O)C[C@H]4[C@@H]5C[C@H](O)[C@]6(O)CC=CC(=O)[C@]6(C)[C@H]5CC[C@@]43C)[C@@H](C1)OC(=O)[C@]2(C)O (stereo partly drawn) [ANOMANOLIDE E]
- IC50 [1]: > 20 µg/mL
- IC50 (MCF7): > 20 µg/mL
- IC50 (HepG2): > 20 µg/mL
- IC50 (MDA-MB-231): > 20 µg/mL
- IC50 (A549): > 20 µg/mL

Structure (SMILES): C[C@@]12CC([C@@]3(O)[C@H](O)C[C@H]4[C@@H]5CC[C@]6(O)[C@@H](O)C=CC(=O)[C@]6(C)[C@H]5CC[C@@]43C)[C@@H](C1)OC(=O)[C@]2(C)O (stereo partly drawn) [ANOMANOLIDE F]
- IC50 [1]: > 20 µg/mL
- IC50 (MCF7): > 20 µg/mL
- IC50 (HepG2): > 20 µg/mL
- IC50 (MDA-MB-231): > 20 µg/mL
- IC50 (A549): > 20 µg/mL

Structure (SMILES): COc1cccc2c1C(=O)c1c(O)c3c(c(O)c1C2=O)C[C@@](O)(C(=O)CO)C[C@@H]3O[C@H]1C[C@H](N)[C@H](O)[C@H](C)O1 [DOXORUBICIN]
- IC50 [1]: 0.45 µg/mL (≈ 0.828 µM)
- IC50 (MRC5): 0.77 µg/mL (≈ 1.42 µM)
- IC50 (HepG2): 0.46 µg/mL (≈ 0.846 µM)
- IC50 (MDA-MB-231): 0.19 µg/mL (≈ 0.35 µM)
- IC50 (A549): 0.42 µg/mL (≈ 0.773 µM)

Structure (SMILES): CC1=C(C)C(=O)O[C@@H]([C@@H](C)[C@@]23O[C@@H]2C[C@H]2[C@@H]4C[C@H]5O[C@]56[C@@H](O)C=CC(=O)[C@]6(C)[C@H]4CC[C@@]23C)C1 [TUBOCAPSANOLIDE A]
- IC50 [1]: 0.42 µg/mL (≈ 0.896 µM)
- IC50 (MRC5): 0.73 µg/mL (≈ 1.56 µM)
- IC50 (MCF7): 1.47 µg/mL (≈ 3.14 µM)
- IC50 (HepG2): 0.86 µg/mL (≈ 1.84 µM)
- IC50 (MDA-MB-231): 0.22 µg/mL (≈ 0.469 µM)
- IC50 (A549): 0.47 µg/mL (≈ 1 µM)

Structure (SMILES): CC1=C(C)C(=O)O[C@@H]([C@@H](C)[C@@]2(C)C3=C(C[C@H]2O)[C@@H]2C[C@H](O)[C@]4(O)[C@@H](O)C=CC(=O)[C@]4(C)[C@H]2CC3)C1 [TUBOCAPSENOLIDE F]
- IC50 [1]: 15.1 µg/mL (≈ 31 µM)
- IC50 (MCF7): 14.7 µg/mL (≈ 30.2 µM)
- IC50 (HepG2): > 20 µg/mL
- IC50 (MDA-MB-231): 8.41 µg/mL (≈ 17.3 µM)
- IC50 (A549): 6.04 µg/mL (≈ 12.4 µM)

Structure (SMILES): CC1=C(C)C(=O)O[C@@H]([C@@H](C)[C@@]2(C)C3=C(C[C@H]2O)[C@@H]2C[C@H](Cl)[C@]4(O)[C@@H](O)C=CC(=O)[C@]4(C)[C@H]2CC3)C1 [TUBOCAPSENOLIDE G]
- IC50 [1]: > 20 µg/mL
- IC50 (MCF7): > 20 µg/mL
- IC50 (HepG2): 19.1 µg/mL (≈ 37.9 µM)
- IC50 (MDA-MB-231): > 20 µg/mL
- IC50 (A549): 19.9 µg/mL (≈ 39.5 µM)

Structure (SMILES): C[C@]1(O)C[C@H]2OC(=O)[C@]1(C)C[C@H]2[C@@]1(O)[C@H](O)C[C@H]2[C@@H]3C[C@H](Cl)[C@]4(O)[C@@H](O)C=CC(=O)[C@]4(C)[C@H]3CC[C@@]21C [TUBONOLIDE A]
- IC50 [1]: 6.54 µg/mL (≈ 12.1 µM)
- IC50 (MCF7): 12 µg/mL (≈ 22.3 µM)
- IC50 (HepG2): 5.09 µg/mL (≈ 9.44 µM)
- IC50 (MDA-MB-231): > 20 µg/mL
- IC50 (A549): 5.91 µg/mL (≈ 11 µM)

Structure (SMILES): CC1=C(CO)C(=O)O[C@@H]([C@@H](C)[C@H]2CC[C@H]3[C@@H]4C[C@H]5O[C@]56[C@@H](O)C=CC(=O)[C@]6(C)[C@H]4CC[C@]23C)C1 [WITHAFERIN A]
- IC50 [1]: 0.06 µg/mL (≈ 0.127 µM)
- IC50 (MRC5): 0.07 µg/mL (≈ 0.149 µM)
- IC50 (MCF7): 0.05 µg/mL (≈ 0.106 µM)
- IC50 (HepG2): 0.06 µg/mL (≈ 0.127 µM)
- IC50 (MDA-MB-231): 0.02 µg/mL (≈ 0.0425 µM)
- IC50 (A549): 0.02 µg/mL (≈ 0.0425 µM)
